The NIST ThermoML archive (doi:10.1016/j.jct.2016.07.005)
± gives the expanded uncertainty stated by the source.

Experiment: xn = mol fraction of the nth substance listed
Settings: 100 kPa, Liquid; for viscosity: Concentric cylinders viscometry; for mass density: Vibrating tube method

CN1CCC[C@H]1c1cccnc1 [(-)-3-(N-methylpyrrolidino)pyridine] + CCCCO
Settings	mass density [kg/m3]	viscosity [mPa·s]
293.15 K, x1 = 0.1	845.043 ± 1	3.049 ± 0.063
293.15 K, x1 = 0.196	874.098 ± 1	3.209 ± 0.066
293.15 K, x1 = 0.3	901.216 ± 1	3.408 ± 0.07
293.15 K, x1 = 0.3931	922.268 ± 1	3.601 ± 0.074
293.15 K, x1 = 0.5	943.285 ± 1	3.829 ± 0.079
293.15 K, x1 = 0.593	960.358 ± 1	4.027 ± 0.083
293.15 K, x1 = 0.7	975.308 ± 1	4.242 ± 0.088
293.15 K, x1 = 0.7931	987.593 ± 1	4.412 ± 0.092
293.15 K, x1 = 0.9	1000.01 ± 1	4.578 ± 0.096
293.15 K, x1 = 1	1010.23 ± 1	4.694 ± 0.098
298.15 K, x1 = 0.1	841.123 ± 1	2.692 ± 0.056
298.15 K, x1 = 0.196	870.112 ± 1	2.833 ± 0.058
298.15 K, x1 = 0.3	897.182 ± 1	2.999 ± 0.062
298.15 K, x1 = 0.3931	918.206 ± 1	3.155 ± 0.065
298.15 K, x1 = 0.5	939.205 ± 1	3.337 ± 0.069
298.15 K, x1 = 0.593	956.271 ± 1	3.494 ± 0.072
298.15 K, x1 = 0.7	971.222 ± 1	3.666 ± 0.076
298.15 K, x1 = 0.7931	983.509 ± 1	3.803 ± 0.079
298.15 K, x1 = 0.9	995.934 ± 1	3.942 ± 0.082
298.15 K, x1 = 1	1006.16 ± 1	4.048 ± 0.085
303.15 K, x1 = 0.1	837.185 ± 1	2.374 ± 0.049
303.15 K, x1 = 0.196	866.114 ± 1	2.498 ± 0.052
303.15 K, x1 = 0.3	893.14 ± 1	2.642 ± 0.055
303.15 K, x1 = 0.3931	914.139 ± 1	2.776 ± 0.058
303.15 K, x1 = 0.5	935.124 ± 1	2.931 ± 0.061
303.15 K, x1 = 0.593	952.186 ± 1	3.062 ± 0.064
303.15 K, x1 = 0.7	967.138 ± 1	3.205 ± 0.067
303.15 K, x1 = 0.7931	979.432 ± 1	3.319 ± 0.069
303.15 K, x1 = 0.9	991.866 ± 1	3.433 ± 0.072
303.15 K, x1 = 1	1002.1 ± 1	3.518 ± 0.074
308.15 K, x1 = 0.1	833.229 ± 1	2.105 ± 0.044
308.15 K, x1 = 0.196	862.102 ± 1	2.219 ± 0.046
308.15 K, x1 = 0.3	889.089 ± 1	2.346 ± 0.049
308.15 K, x1 = 0.3931	910.068 ± 1	2.461 ± 0.051
308.15 K, x1 = 0.5	931.041 ± 1	2.592 ± 0.054
308.15 K, x1 = 0.593	948.102 ± 1	2.702 ± 0.056
308.15 K, x1 = 0.7	963.059 ± 1	2.821 ± 0.059
308.15 K, x1 = 0.7931	975.36 ± 1	2.917 ± 0.061
308.15 K, x1 = 0.9	987.806 ± 1	3.013 ± 0.063
308.15 K, x1 = 1	998.055 ± 1	3.088 ± 0.065
313.15 K, x1 = 0.1	829.249 ± 1	1.885 ± 0.039
313.15 K, x1 = 0.196	858.073 ± 1	1.99 ± 0.041
313.15 K, x1 = 0.3	885.026 ± 1	2.103 ± 0.044
313.15 K, x1 = 0.3931	905.989 ± 1	2.203 ± 0.046
313.15 K, x1 = 0.5	926.955 ± 1	2.316 ± 0.048
313.15 K, x1 = 0.593	944.017 ± 1	2.41 ± 0.05
313.15 K, x1 = 0.7	958.981 ± 1	2.514 ± 0.053
313.15 K, x1 = 0.7931	971.292 ± 1	2.598 ± 0.054
313.15 K, x1 = 0.9	983.751 ± 1	2.686 ± 0.056
313.15 K, x1 = 1	994.014 ± 1	2.758 ± 0.058
318.15 K, x1 = 0.1	825.24 ± 1	1.683 ± 0.035
318.15 K, x1 = 0.196	854.022 ± 1	1.777 ± 0.037
318.15 K, x1 = 0.3	880.948 ± 1	1.88 ± 0.039
318.15 K, x1 = 0.3931	901.899 ± 1	1.97 ± 0.041
318.15 K, x1 = 0.5	922.862 ± 1	2.07 ± 0.043
318.15 K, x1 = 0.593	939.982 ± 1	2.152 ± 0.045
318.15 K, x1 = 0.7	954.903 ± 1	2.239 ± 0.047
318.15 K, x1 = 0.7931	967.226 ± 1	2.304 ± 0.048
318.15 K, x1 = 0.9	979.704 ± 1	2.367 ± 0.05
318.15 K, x1 = 1	989.984 ± 1	2.411 ± 0.051
323.15 K, x1 = 0.1	821.198 ± 1	1.495 ± 0.031
323.15 K, x1 = 0.196	849.946 ± 1	1.603 ± 0.033
323.15 K, x1 = 0.3	876.851 ± 1	1.708 ± 0.036
323.15 K, x1 = 0.3931	897.795 ± 1	1.793 ± 0.037
323.15 K, x1 = 0.5	918.759 ± 1	1.882 ± 0.039
323.15 K, x1 = 0.593	935.834 ± 1	1.952 ± 0.041
323.15 K, x1 = 0.7	950.822 ± 1	2.025 ± 0.042
323.15 K, x1 = 0.7931	963.162 ± 1	2.083 ± 0.044
323.15 K, x1 = 0.9	975.66 ± 1	2.143 ± 0.045
323.15 K, x1 = 1	985.962 ± 1	2.195 ± 0.046
